Test results from ChEMBL document CHEMBL1201862, “PubChem BioAssay data set” (2004).
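Cells were grown in 96-well plates and exposed to each compound for 48 hours at five concentrations; endpoints were interpolated linearly between bracketing concentrations, or set to the highest concentration if not reached. The concentration for 50% growth inhibition is given as GI50.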 The source made the active and inactive calls. Cut-off read from the data, not from the text of the source: active = GI50 up to about 1.1 µM and inactive = higher.

How the values were obtained:
Test in all cases: inhibition of tumour cell growth, NCI panel, 48 h
SF-268 = test system: SF-268
SK-MEL-5 = test system: SK-MEL-5
CAKI-1 = test system: CAKI-1
Malme-3M = test system: Malme-3M
SNB-19 = test system: SNB-19
MOLT-4 = test system: MOLT-4
HCT-15 = test system: HCT-15
HOP-62 = test system: HOP-62
HT-29 = test system: HT-29
UACC-62 = test system: UACC-62
RXF 393 = test system: RXF 393
HL-60 = test system: HL-60
CCRF-CEM = test system: CCRF-CEM
U-251 = test system: U-251
NCI-H226 = test system: NCI-H226
KM12 = test system: KM12
OVCAR-4 = test system: OVCAR-4
IGROV-1 = test system: IGROV-1
COLO 205 = test system: COLO 205
HOP-92 = test system: HOP-92

Structure (SMILES) | GI50 (SF-268) | GI50 (SK-MEL-5) | GI50 (CAKI-1) | GI50 (Malme-3M) | GI50 (SNB-19) | GI50 (MOLT-4) | GI50 (HCT-15) [µM] | GI50 (HOP-62) | GI50 (HT-29) | GI50 (UACC-62) | GI50 (RXF 393) | GI50 (HL-60) | GI50 (CCRF-CEM) | GI50 (U-251) | GI50 (NCI-H226) | GI50 (KM12) | GI50 (OVCAR-4) | GI50 (IGROV-1) | GI50 (COLO 205) | GI50 (HOP-92)
COc1cc(N/N=C/C#N)cc(OC)c1OC | > 10 µM (inactive) | > 10 µM (inactive) | 4.07 µM (inactive) | 7.55 µM (inactive) | > 10 µM (inactive) | 2.92 µM (inactive) | > 10 | > 10 µM (inactive) | > 10 µM (inactive) | > 10 µM (inactive) | > 10 µM (inactive) | 2.12 µM (inactive) | 3.28 µM (inactive) | > 10 µM (inactive) | > 10 µM (inactive) | > 10 µM (inactive) | > 10 µM (inactive) | > 10 µM (inactive) | 4.86 µM (inactive) | –
COc1ccc(/C=N/NC(=O)NCCCN(C)C)cc1 | > 100 µM (inactive) | > 100 µM (inactive) | – | > 100 µM (inactive) | > 100 µM (inactive) | > 100 µM (inactive) | > 100 | – | > 100 µM (inactive) | > 100 µM (inactive) | > 100 µM (inactive) | > 100 µM (inactive) | > 100 µM (inactive) | > 100 µM (inactive) | > 100 µM (inactive) | > 100 µM (inactive) | – | > 100 µM (inactive) | – | –
COc1cc(Nc2nc3ccc(C(F)(F)F)cc3nc2C(=O)O)cc(OC)c1OC | 18.8 µM (inactive) | 34.4 µM (inactive) | 24.8 µM (inactive) | 27.1 µM (inactive) | 29.9 µM (inactive) | 29.2 µM (inactive) | 18.2 | 18.2 µM (inactive) | 27 µM (inactive) | 18.6 µM (inactive) | 25.2 µM (inactive) | 31.3 µM (inactive) | 41.6 µM (inactive) | 19 µM (inactive) | 21.4 µM (inactive) | 23.6 µM (inactive) | 15.1 µM (inactive) | 25.6 µM (inactive) | 19.8 µM (inactive) | –
CCOC(=O)[C@H]1Nc2c(cccc2[N+](=O)[O-])C2c3ccccc3CC21 (stereo not given in full) | > 100 µM (inactive) | > 100 µM (inactive) | > 100 µM (inactive) | > 100 µM (inactive) | > 100 µM (inactive) | > 100 µM (inactive) | > 100 | > 100 µM (inactive) | 18.3 µM (inactive) | > 100 µM (inactive) | 3.15 µM (inactive) | – | – | > 100 µM (inactive) | > 100 µM (inactive) | > 100 µM (inactive) | 36.9 µM (inactive) | > 100 µM (inactive) | > 100 µM (inactive) | –
CC1(C)CCc2cc3c(cc2O1)OC(C)(C)CC3=O | > 100 µM (inactive) | 21.1 µM (inactive) | 52.5 µM (inactive) | – | – | 46.8 µM (inactive) | 91.8 | 23.2 µM (inactive) | 35.6 µM (inactive) | > 100 µM (inactive) | – | 23.4 µM (inactive) | 76.6 µM (inactive) | 90.8 µM (inactive) | 34.2 µM (inactive) | > 100 µM (inactive) | 62.8 µM (inactive) | > 100 µM (inactive) | > 100 µM (inactive) | 17.5 µM (inactive)
CS(=O)(=O)OCC1=C(COS(C)(=O)=O)C(=O)c2c(O)ccc(O)c2C1=O | > 100 µM (inactive) | > 100 µM (inactive) | > 100 µM (inactive) | > 100 µM (inactive) | – | > 100 µM (inactive) | > 100 | > 100 µM (inactive) | > 100 µM (inactive) | > 100 µM (inactive) | – | > 100 µM (inactive) | > 100 µM (inactive) | > 100 µM (inactive) | > 100 µM (inactive) | > 100 µM (inactive) | > 100 µM (inactive) | > 100 µM (inactive) | > 100 µM (inactive) | > 100 µM (inactive)
